In PMC10762035, “Molecular basis of human trace amine-associated receptor 1 activation” (Nature Communications, 2024):
Numbering of substitutions follows the chain as printed. Where “and” joins values, the source holds several entries; their conditions need not be identical. Equal values may be shown once.

Tests used:
Assay type in all cases: cell-based
hTA1 S107C = target: T1, hTA1 S107C (Homo sapiens, UniProt Q96RJ0, S107C); assay: GloSensor cAMP accumulation assay, S107C mutant;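 note: cells transiently co-expressing receptor and GloSensor biosensor, luminescence read after 30 min agonist exposure at room temperature, concentration-response fitted by nonlinear regression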
T1 construct: expressed in transfected cells; host or cells: HEK293T
T1 sequence (Q96RJ0 1-339 S107C): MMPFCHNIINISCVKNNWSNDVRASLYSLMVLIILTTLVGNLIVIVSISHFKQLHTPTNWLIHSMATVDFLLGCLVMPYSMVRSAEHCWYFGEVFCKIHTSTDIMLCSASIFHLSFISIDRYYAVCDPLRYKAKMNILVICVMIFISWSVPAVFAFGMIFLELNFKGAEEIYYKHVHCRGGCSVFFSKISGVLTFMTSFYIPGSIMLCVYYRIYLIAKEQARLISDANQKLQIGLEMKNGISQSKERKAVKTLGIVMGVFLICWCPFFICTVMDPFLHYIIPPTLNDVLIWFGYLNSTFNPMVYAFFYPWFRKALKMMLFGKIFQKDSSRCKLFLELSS

hTA1 C13S = target: T2, hTA1 C13S (Homo sapiens, UniProt Q96RJ0, C13S); assay: GloSensor cAMP accumulation assay, C13S mutant; conditions: for C13S - Normalized Luminescence Counts (N=2): log[Compound], single wells
T2 construct: expressed in transfected cells; host or cells: HEK293T
T2 sequence (Q96RJ0 1-339 C13S): T1 sequence (Q96RJ0 1-339 S107C) with C13S, C107S

hTA1 C178S = target: T3, hTA1 C178S (Homo sapiens, UniProt Q96RJ0, C178S); assay: GloSensor cAMP accumulation assay, C178S mutant; conditions: for C178S - Normalized Luminescence Counts (N=2): log[Compound], single replicates
T3 construct: expressed in transfected cells; host or cells: HEK293T
T3 sequence (Q96RJ0 1-339 C178S): T1 sequence (Q96RJ0 1-339 S107C) with C107S, C178S

hTA1 I290N = target: T4, hTA1 I290N (Homo sapiens, UniProt Q96RJ0, I290N); assay: GloSensor cAMP accumulation assay, I290N mutant;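 note: cells transiently co-expressing hTA1 and the GloSensor cAMP biosensor, luminescence read 30 min after compound addition at room temperature, efficacy scaled to the maximal β-PEA response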
T4 construct: expressed in transfected cells; host or cells: HEK293T
T4 sequence (Q96RJ0 1-339 I290N): T1 sequence (Q96RJ0 1-339 S107C) with C107S, I290N

hTA1 T271A = target: T5, hTA1 T271A (Homo sapiens, UniProt Q96RJ0, T271A); assay: GloSensor cAMP accumulation assay, T271A mutant
T5 construct: expressed in transfected cells; host or cells: HEK293T
T5 sequence (Q96RJ0 1-339 T271A): T1 sequence (Q96RJ0 1-339 S107C) with C107S, T271A

[1] = C178S, each row one experiment (N=2), 3 replicates
[2] = hTA1 I290N mutant minus WT average

With `NCCc1ccccc1` [β-PEA, β-phenethylamine] as the compound, how does the “ΔEmax values (each mutant value - WT average)” value (hTA1 S107C; S107C mutant minus WT average) read?
The value was 0.

And the “Emax values, Mean” value (hTA1 S107C; S107C mutant, β-PEA = 100, each line an independent experiment, 3 replicates)?
Its value is 100.

And the “Span ± SEM (Emax normalized to β-PEA)” value (hTA1 S107C; S107C, n=2)?
Its value is 100 ± 3.55.

And the “pEC50 ± SEM” value (hTA1 S107C; S107C, n=2)?
Its value is 6.69 ± 0.71.

What about the EC50 (hTA1 S107C; S107C, n=2, read-out: EC50) of the same compound?
Its EC50 is 205 nM.

And the “ΔEmax values (each mutant value - WT average)” value (hTA1 C13S; C13S)?
The value was 0.

What about the “ΔpEC50 values (each mutant value - WT average)” value (hTA1 C13S; C13S) of the same compound?
Its value is -0.3351 and -0.4017.

What about the Emax values (hTA1 C13S; C13S, Mean of fit per experiment) of the same compound?
Its Emax values is 100.

And the “Span ± SEM (Emax normalized to β-PEA)” value (hTA1 C13S; C13S, n=2)?
The value was 100 ± 2.41.

And the “pEC50 ± SEM” value (hTA1 C13S; C13S, n=2)?
The value was 6.73 ± 0.05.

And the EC50 (hTA1 C13S; C13S, n=2, read-out: EC50)?
Its EC50 is 188 nM.

And the “pEC50 values, Mean” value (hTA1 C13S; hTA1 C13S, mean of 3 replicates, one line per independent experiment)?
Its value is 6.758 and 6.6918.

And the “C13S - Normalized Luminescence Counts (N=2)” value (hTA1 C13S; M = -5)?
The value was 99.2705 and 93.6371 and 125.268 and 108.514 and 91.163 and 111.602.

What about the “C13S - Normalized Luminescence Counts (N=2)” value (hTA1 C13S; M = -5.522) of the same compound?
Its value is 84.5018 and 89.7165 and 90.3636 and 93.2337 and 75.9363 and 100.338.

What about the “C13S - Normalized Luminescence Counts (N=2)” value (hTA1 C13S; M = -6) of the same compound?
The value was 78.7162 and 86.7856 and 86.6715 and 80.2383 and 65.7078 and 88.5033.

What about the “C13S - Normalized Luminescence Counts (N=2)” value (hTA1 C13S; M = -6.522) of the same compound?
The value was 64.3281 and 49.293 and 64.0617 and 65.0295 and 54.7831 and 70.7417.

What about the “pEC50 values, Mean” value (hTA1 C178S; [1]) of the same compound?
Its value is 7.235 and 7.223.

And the “ΔpEC50 values (each mutant value - WT average), Mean” value (“ΔpEC50 values … Mean” for short) (hTA1 C178S; [1])?
Its value is 0.1416 and 0.1292.

What about the “Span ± SEM (Emax normalized to β-PEA)” value (hTA1 C178S; C178S, n=2) of the same compound?
The value was 100 ± 2.97.

What about the “pEC50 ± SEM” value (hTA1 C178S; C178S, n=2) of the same compound?
Its value is 7.23 ± 0.07.

And the EC50 (hTA1 C178S; C178S, n=2, read-out: EC50)?
Its EC50 is 59 nM.

What about the “Emax values, Mean” value (hTA1 C178S; C178S, β-PEA = 100, each row one experiment (N=2), 3 replicates) of the same compound?
The value was 100.

What about the “C178S - Normalized Luminescence Counts (N=2)” value (hTA1 C178S; M = -5) of the same compound?
Its value is 99.3155 and 106.699 and 98.2875 and 86.7589 and 74.9716 and 83.1688.

And the “C178S - Normalized Luminescence Counts (N=2)” value (hTA1 C178S; M = -5.522)?
The value was 92.9136 and 85.3902 and 85.0163 and 113.744 and 82.4209 and 115.

What about the “C178S - Normalized Luminescence Counts (N=2)” value (hTA1 C178S; M = -6) of the same compound?
The value was 105.577 and 101.792 and 96.652 and 125.741 and 90.4686 and 124.155.

What about the “C178S - Normalized Luminescence Counts (N=2)” value (hTA1 C178S; M = -6.522) of the same compound?
Its value is 93.1473 and 96.0445 and 75.0162 and 77.2154 and 68.719 and 87.1478.

What about the “C178S - Normalized Luminescence Counts (N=2)” value (hTA1 C178S; M = -7) of the same compound?
The value was 68.3806 and 62.1189 and 51.4645 and 64.3212 and 56.124 and 61.3594.

And the “C178S - Normalized Luminescence Counts (N=2)” value (hTA1 C178S; M = -7.522)?
Its value is 36.8382 and 29.782 and 30.7166 and 32.2204 and 27.7927 and 32.0708.

What about the “C178S - Normalized Luminescence Counts (N=2)” value (hTA1 C178S; M = -8) of the same compound?
Its value is 16.2772 and 19.3614 and 14.922 and 22.976 and 17.1422 and 19.9245.

And the “C178S - Normalized Luminescence Counts (N=2)” value (hTA1 C178S; M = -8.522)?
The value was 3.333 and 3.193 and 2.959 and 9.783 and 5.445 and 7.24.

And the “C178S - Normalized Luminescence Counts (N=2)” value (hTA1 C178S; M = -9)?
Its value is 1.604 and 3.099 and 1.838 and 2.393 and 2.184 and 1.825.

What about the “C178S - Normalized Luminescence Counts (N=2)” value (hTA1 C178S; M = -9.522) of the same compound?
The value was 0.7163 and 0.2957 and -0.07812 and 1.615 and 0.2691 and 1.107.

And the “C178S - Normalized Luminescence Counts (N=2)” value (hTA1 C178S; M = -10)?
Its value is 1.791 and 0.9967 and 1.277 and -3.171 and -1.3464 and -0.5985.

And the “C178S - Normalized Luminescence Counts (N=2)” value (hTA1 C178S; M = -10.522)?
The value was -0.5454 and 0.763 and 0.06206 and -2.244 and -1.825 and -1.7054.

What about the “C178S - Normalized Luminescence Counts (N=2)” value (hTA1 C178S; M = -11) of the same compound?
Its value is 0.1088 and 0.5294 and -0.07812 and 0.3289 and 0.7777 and -1.376.

What about the “C178S - Normalized Luminescence Counts (N=2)” value (hTA1 C178S; M = -11.522) of the same compound?
The value was 1.37 and -0.1716 and -0.2183 and -0.6583 and -1.287 and 0.3289.

What about the “C178S - Normalized Luminescence Counts (N=2)” value (hTA1 C178S; M = -12) of the same compound?
Its value is -0.7791 and 0.2957 and -0.265 and -2.932 and -0.03006 and 1.645.

And the “C178S - Normalized Luminescence Counts (N=2)” value (hTA1 C178S; M = -12.522)?
The value was -0.452 and -1.34 and -0.6856 and -1.915 and -0.9575 and -0.4489.

What about the “Span ± SEM (Emax normalized to β-PEA)” value (hTA1 I290N; I290N, n=2) of the same compound?
The value was 100 ± 2.5.

What about the “pEC50 ± SEM” value (hTA1 I290N; I290N, n=2) of the same compound?
The value was 7.26 ± 0.06.

What about the EC50 (hTA1 I290N; I290N, n=2, read-out: EC50) of the same compound?
Its EC50 is 54.7 nM.

And the “cAMP accumulation response, single replicate values (source data, Supplementary Figure 5)” value (hTA1 I290N; hTA1 I290N (N=2), log[Compound], M = -5)?
Its value is 123.698 and 115.527 and 100.651 and 114.899.

And the “ΔEmax values (each mutant value - WT average), Mean” value (hTA1 I290N; [2])?
Its value is 0.

What about the “ΔpEC50 values … Mean” value (hTA1 I290N; [2]) of the same compound?
The value was 0.1524 and 0.1839.

And the “pEC50 values, Mean” value (hTA1 I290N; hTA1 I290N mutant, Figure 3B source data, each grid row a separate experiment, 3 replicates)?
Its value is 7.2459 and 7.277.

What about the “Emax values, Mean” value (hTA1 I290N; hTA1 I290N mutant, β-PEA set to 100, each grid row a separate experiment, 3 replicates) of the same compound?
The value was 100.

And the “reduction in potency vs wild type” value (hTA1 T271A; T271A)?
The value was “about 10 fold”.

What about the “ΔpEC50 values … Mean” value (hTA1 T271A; T271A mutant minus WT average, Figure 5B) of the same compound?
Its value is -1.015 and -0.8638.

And the “pEC50 values, Mean” value (hTA1 T271A; T271A mutant, Figure 5B, each row one independent experiment (3 replicates))?
Its value is 6.079 and 6.23.

And the “Emax values, Mean” value (hTA1 T271A; T271A mutant, Figure 5B, β-PEA = 100, each row one independent experiment (3 replicates))?
Its value is 100.

What about the “Span ± SEM (Emax normalized to β-PEA)” value (hTA1 T271A; T271A, n=2) of the same compound?
The value was 100 ± 2.03.

What about the “pEC50 ± SEM” value (hTA1 T271A; T271A, n=2) of the same compound?
Its value is 6.15 ± 0.03.

What about the EC50 (hTA1 T271A; T271A, n=2, read-out: EC50) of the same compound?
The EC50 was 701 nM.
